Measured values: patent publication US9556179B2 (BRISTOL-MYERS SQUIBB COMPANY, priority 2012, dated 2017)
Counter-ions that a name gives are not always drawn.

Key:
CK1ε = CK1ε (Homo sapiens (Human), UniProt P49674); test: CK1ε kinase assay (Caliper LABCHIP electrophoretic separation of fluoresceinated peptide substrate and product); type: biochemical; conditions: 200 pM enzyme, 50 μM ATP, 22 hours at room temperature
Procedure, shortened: (§1)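 Kinase reactions ran 22 h at room temperature, were stopped with EDTA, and phosphorylated product was separated electrophoretically from unphosphorylated fluoresceinated peptide. Compounds were tested at eleven concentrations from 10 mM DMSO stocks. IC50 by non-linear regression.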

CK1δ = CK1δ (Homo sapiens (Human), UniProt P48730); test: CK1δ kinase assay (Caliper LABCHIP electrophoretic separation of fluoresceinated peptide substrate and product); type: biochemical; conditions: 200 pM enzyme, 50 μM ATP, 22 hours at room temperature
Procedure, shortened: as §1

CK1ε, sequence (P49674 whole entry): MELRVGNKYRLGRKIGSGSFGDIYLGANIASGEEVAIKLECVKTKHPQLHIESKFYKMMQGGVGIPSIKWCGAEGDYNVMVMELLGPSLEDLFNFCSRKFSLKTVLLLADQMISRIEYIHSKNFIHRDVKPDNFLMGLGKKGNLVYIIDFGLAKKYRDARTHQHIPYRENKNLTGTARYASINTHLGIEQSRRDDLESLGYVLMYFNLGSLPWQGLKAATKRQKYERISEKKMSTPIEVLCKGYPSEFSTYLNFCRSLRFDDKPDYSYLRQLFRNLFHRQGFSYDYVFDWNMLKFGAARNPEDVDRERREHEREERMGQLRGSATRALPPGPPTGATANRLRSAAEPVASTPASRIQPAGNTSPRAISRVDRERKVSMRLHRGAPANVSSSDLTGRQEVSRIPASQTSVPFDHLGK
CK1δ, sequence (P48730 whole entry): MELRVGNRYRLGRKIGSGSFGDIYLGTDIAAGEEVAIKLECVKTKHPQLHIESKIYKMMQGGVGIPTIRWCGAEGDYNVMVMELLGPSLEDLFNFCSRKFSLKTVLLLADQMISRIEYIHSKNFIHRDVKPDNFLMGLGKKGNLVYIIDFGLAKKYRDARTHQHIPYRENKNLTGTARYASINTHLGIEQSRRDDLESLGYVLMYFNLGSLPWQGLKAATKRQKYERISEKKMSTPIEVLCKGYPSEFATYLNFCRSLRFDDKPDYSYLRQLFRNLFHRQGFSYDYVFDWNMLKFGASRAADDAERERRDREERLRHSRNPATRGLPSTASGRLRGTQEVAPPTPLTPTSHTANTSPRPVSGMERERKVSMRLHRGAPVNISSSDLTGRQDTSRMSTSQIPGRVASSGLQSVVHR

SMILES	IC50 (CK1ε) [nM]	IC50 (CK1δ) [nM]
O=C(Nc1cn2nc(-c3c(-c4ccc(F)cc4)ncn3CCN3CCC(F)(F)CC3)ccc2n1)c1ccnc(F)c1 [Compound 251, N-(6-(1-(2-(4,4-difluoro-1-piperi-dinyl)ethyl)-4-(4-fluorophenyl)-1H-imidazol-5-yl)imidazo[1,2-b]pyridazin-2-yl)-2-fluoroiso-nicotinamide]	5.38	0.385
CCCn1cnc(-c2ccc(F)cc2)c1-c1ccc2nc(NC(=O)C(C)(C)C)cn2n1 [Compound 273, N-(6-(4-(4-Fluorophenyl)-1-propyl-1H-imidazol-5-yl)imidazo[1,2-b]pyridazin-2-yl)pivalamide]	1.01	0.257
Cc1cc(C(=O)N2CCC(n3cnc(-c4ccc(F)cc4)c3-c3ccc4nc(NC(=O)c5ccnc(F)c5)cn4n3)CC2)no1 [Compound 51, 2-fluoro-N-(6-(4-(4-fluorophenyl)-1-(1-(5-methylisoxazole-3-carbonyl)piperidin-4-yl)-1H-imidazol-5-yl)imidazo[1,2-b]pyridazin-2-yl)isonicotinamide]	2.58	0.24
CC(C)C(=O)N1CCn2c(nc(-c3ccc(F)cc3)c2-c2ccc3nc(NC(=O)c4ccnc(F)c4)cn3n2)C1 [Compound 463, 2-Fluoro-N-(6-(2-(4-fluorophenyl)-7-isobutyryl-5,6,7,8-tetrahydroimidazo[1,2-a]pyrazin-3-yl)imidazo[1,2-b]pyridazin-2-yl)isonicotinamide]	3.8	0.5
Cc1nc(-c2ccc(F)cc2)c(-c2ccc3nc(NC(=O)c4cccn4C)cn3n2)n1C [Compound 357, N-(6-(4-(4-fluorophenyl)-1,2-dimethyl-1H-imidazol-5-yl)imidazo[1,2-b]pyridazin-2-yl)-1-methyl-1H-pyrrole-2-carboxamide]	17.6	1.49
O=C(Nc1cn2nc(-c3c(-c4ccc(F)cc4)ncn3C3CCN(C[C@H](O)C(F)(F)F)CC3)ccc2n1)c1cc(F)nc(F)c1 [Compound 91, (S)-2,6-difluoro-N-(6-(4-(4-fluorophenyl)-1-(1-(3,3,3-trifluoro-2-hydroxypropyl)piperidin-4-yl)-1H-imidazol-5-yl)imidazo[1,2-b]pyridazin-2-yl)isonicotinamide]	0.796	0.296
O=C(Nc1cn2nc(-c3c(-c4ccc(F)cc4)nc4ccccn34)ccc2n1)C1CCOCC1 [Compound 220, N-(6-(2-(4-fluorophenyl)imidazo[1,2-a]pyridin-3-yl)imidazo[1,2-b]pyridazin-2-yl)tetrahydro-2H-pyran-4-carboxamide]	11.4	0.734
CC(=O)N1CCn2c(nc(-c3ccc(F)cc3)c2-c2ccc3nc(NC(=O)c4ccnc(F)c4)cn3n2)C1 [Compound 460, N-(6-(7-Acetyl-2-(4-fluorophenyl)-5,6,7,8-tetrahydroimidazo[1,2-a]pyrazin-3-yl)imidazo[1,2-b]pyridazin-2-yl)-2-fluoroisonicotinamide]	3.7	0.6
CC(=O)N1CCCC1C(=O)Nc1cn2nc(-c3c(-c4ccc(F)cc4)nc(C)n3C)ccc2n1 (stereo not drawn) [Compound 363, 1-acetyl-N-(6-(4-(4-fluoro-phenyl)-1,2-dimethyl-1H-imidazol-5-yl)imidazo[1,2-b]pyridazin-2-yl)prolinamide]	26.2	2.36
Cc1nc(-c2ccc(F)cc2)c(-c2ccc3nc(NC(=O)c4ccc(Cl)cc4F)cn3n2)n1C [Compound 398, 4-chloro-2-fluoro-N-(6-(4-(4-fluorophenyl)-1,2-dimethyl-1H-imidazol-5-yl)imidazo[1,2-b]pyridazin-2-yl) benzamide]	2.7	0.66
O=C(Nc1cn2nc(-c3c(-c4ccc(F)cc4)nc(C4CC4)n3C3CCN(C(=O)Nc4ccncc4)CC3)ccc2n1)c1ccnc(F)c1 [Compound 125, N-(6-(2-cyclopropyl-4-(4-fluorophenyl)-1-(1-(pyridin-4-ylcarbamoyl)piperidin-4-yl)-1H-imidazol-5-yl)imidazo[1,2-b]pyridazin-2-yl)-2-fluoroisonicotinamide]	6.03	0.95
Cn1nccc1CN1CCC(n2c(C3CC3)nc(-c3ccc(F)cc3)c2-c2ccc3nc(NC(=O)c4ccnc(F)c4)cn3n2)CC1 [Compound 129, N-(6-(2-cyclopropyl-4-(4-fluorophenyl)-1-(1-((1-methyl-1H-pyrazol-5-yl)methyl)piperidin-4-yl)-1H-imidazol-5-yl)imidazo[1,2-b]pyridazin-2-yl)-2-fluoroisonicotinamide]	19.1	2.28
O=C(Nc1cn2nc(-c3c(-c4ccc(F)cc4)nc4ccccn34)ccc2n1)c1csc(-c2cccnc2)n1 [Compound 188, N-(6-(2-(4-fluorophenyl)imidazo[1,2-a]pyridin-3-yl)imidazo[1,2-b]pyridazin-2-yl)-2-(pyridin-3-yl)thiazole-4-carboxamide]	9.8	3.56
Cc1nc(-c2ccc(F)cc2)c(-c2ccc3nc(NC(=O)c4cnc(-c5ccncc5)s4)cn3n2)n1C [Compound 390, N-(6-(4-(4-fluorophenyl)-1,2-dimethyl-1H-imidazol-5-yl)imidazo[1,2-b]pyridazin-2-yl)-2-(pyridin-4-yl)thiazole-5-carboxamide]	32.6	7.2
CC(C)(C)C(=O)Nc1cn2nc(-c3c(-c4ccc(F)cc4)ncn3CCO)ccc2n1 [Compound 274, N-(6-(4-(4-fluorophenyl)-1-(2-hydroxyethyl)-1H-imidazol-5-yl)imidazo[1,2-b]pyridazin-2-yl)pivalamide]	8.98	0.635
Cc1nc(-c2ccc(F)cc2)c(-c2ccc3nc(NC(=O)c4ccc(C#N)nc4)cn3n2)n1C [Compound 374, 6-cyano-N-(6-(4-(4-fluoro-phenyl)-1,2-dimethyl-1H-imidazol-5-yl)imidazo[1,2-b]pyridazin-2-yl)nicotinamide]	3.95	0.399
O=C(Nc1cn2nc(-c3c(-c4ccc(F)cc4)ncn3C3CCN(CCO)CC3)ccc2n1)c1ccnc(F)c1 [Compound 13, 2-fluoro-N-(6-(4-(4-fluorophenyl)-1-(1-(2-hydroxyethyl)piperidin-4-yl)-1H-imidazol-5-yl)imidazo[1,2-b]pyridazin-2-yl)isonicotinamide]	0.61	0.214
N#CCCN1CCC(n2cnc(-c3ccc(F)cc3)c2-c2ccc3nc(NC(=O)c4ccnc5ccccc45)cn3n2)CC1 [Compound 113, N-(6-(1-(1-(2-cyanoethyl)piperidin-4-yl)-4-(4-fluorophenyl)-1H-imidazol-5-yl)imidazo[1,2-b]pyridazin-2-yl)quinoline-4-carboxamide]	1.51	0.438
Cc1onc(-c2ccccc2)c1C(=O)Nc1cn2nc(-c3c(-c4ccc(F)cc4)nc4ccccn34)ccc2n1 [Compound 210, N-(6-(2-(4-fluorophenyl)imidazo[1,2-a]pyridin-3-yl)imidazo[1,2-b]pyridazin-2-yl)-5-methyl-3-phenylisoxazole-4-carboxamide]	75.1	17.6
Cc1nc(-c2ccc(F)cc2)c(-c2ccc3nc(NC(=O)c4cccc(CN5CCCC5)c4)cn3n2)n1C [Compound 394, N-(6-(4-(4-fluorophenyl)-1,2-dimethyl-1H-imidazol-5-yl)imidazo[1,2-b]pyridazin-2-yl)-3-(pyrrolidin-1-ylmethyl) benzamide]	15.3	6.81
O=C(Nc1cn2nc(-c3c(-c4ccc(F)cc4)ncn3C3CCN(Cc4ccon4)CC3)ccc2n1)c1ccncc1 [Compound 3, N-(6-(4-(4-fluorophenyl)-1-(1-(isoxazol-3-ylmethyl)piperidin-4-yl)-1H-imidazol-5-yl)imidazo[1,2-b]pyridazin-2-yl)isonicotinamide]	0.298	0.306
Cc1nc(-c2ccc(F)cc2)c(-c2ccc3nc(NC(=O)c4ccc5ccncc5c4)cn3n2)n1C [Compound 313, N-(6-(4-(4-fluorophenyl)-1,2-dimethyl-1H-imidazol-5-yl)imidazo[1,2-b]pyridazin-2-yl)isoquinoline-7-carbox-amide]	1.89	0.691
Cc1nc(-c2ccc(F)cc2)c(-c2ccc3nc(NC(=O)c4ccnc(F)c4)cn3n2)n1CC(F)(F)F [Compound 289, 2-fluoro-N-(6-(4-(4-fluorophenyl)-2-methyl-1-(2,2,2-trifluoroethyl)-1H-imidazol-5-yl)imidazo[1,2-b]pyridazin-2-yl)isonicotinamide]	1.27	0.613
Cc1c[nH]c(C(=O)Nc2cn3nc(-c4c(-c5ccc(F)cc5)nc(C)n4C)ccc3n2)c1 [Compound 338, N-(6-(4-(4-fluorophenyl)-1,2-dimethyl-1H-imidazol-5-yl)imidazo[1,2-b]pyridazin-2-yl)-4-methyl-1H-pyrrole-2-carboxamide]	0.768	0.368
O=C(Nc1cn2nc(-c3c(-c4ccc(F)cc4)nc4n3CCOC4)ccc2n1)c1ccnc(N2CCOCC2)c1 [Compound 450, N-(6-(2-(4-Fluorophenyl)-6,8-dihydro-5H-imidazo[2,1-c][1,4]oxazin-3-yl)imidazo[1,2-b]pyridazin-2-yl)-2-morpholinoisonicotinamide]	6.9	0.7
Cc1cc(Cn2cnc(-c3ccc(F)cc3)c2-c2ccc3nc(NC(=O)C(C)(C)C)cn3n2)no1 [Compound 278, N-(6-(4-(4-fluorophenyl)-1-((5-methyl-isoxazol-3-yl)ylmethyl)-1H-imidazol-5-yl)imidazo[1,2-b]pyridazin-2-yl)pivalamide]	5.43	0.444
COc1ccc(-c2nc(C(=O)Nc3cn4nc(-c5c(-c6ccc(F)cc6)nc6ccccn56)ccc4n3)cs2)cc1 [Compound 189, N-(6-(2-(4-fluorophenyl)imidazo[1,2-a]pyridin-3-yl)imidazo[1,2-b]pyridazin-2-yl)-2-(4-methoxyphenyl) thiazole-4-carboxamide, 3 HCl]	32.1	17.1
